One series concerns SU-DHL-6 cells. The experiment in a line: SU-DHL-6 cell proliferation test. It counts as cell-based, human. Conditions: incubated for 14 days. Here is the method:
SU-DHL-6 cells are human B-cell lymphoma cell lines purchased from ATCC and cultured under the following conditions: RPMI-1640+10% FBS+1% double antibody in a 37° C., 5% CO2 incubator. The cells were plated in a 12-well plate, with a cell concentration of 1×10^5 cells/mL. After the cells were plated, the compounds at different concentrations were added and cultured in a 37° C., 5% CO2 incubator. The cells were counted every 3-4 days (Countstar automated cell counter), centrifuged to remove the supernatant, re-diluted to 1×10^5 cells/mL and plated, and then the compounds at different concentrations were further added. After the mixture was incubated for 14 days and the cells were counted, the test was terminated, and the IC50 values were calculated by using the Origen9.2 software.

For another series, the target named is EZH2 (Homo sapiens (Human), UniProt Q15910). The experiment in a line: Test method for EZH2 enzyme activity. It counts as biochemical. Conditions: H3K27(21-44) and [3H]-SAM. The protocol: The compounds were dissolved in DMSO, formulated into 10 mM solutions and serially diluted with DMSO to obtain 100-fold the final concentration. 200 nL of the solutions of the compounds was transferred to a 384-well plate (Perkin Elmer, Cat. No. 6007299) by using Echo550. EZH2 (BPS, Cat. No. 51004) was diluted with 1×assay buffer (50 mM Tris-HCl 9.0, 0.01% Tween-20, 1 mM DTT) to 2-fold the final concentration (EZH2: 3 nM). A mixed solution of H3K27(21-44) and [3H]-SAM (PerkinElmer, Lot. No. 2146246) (H3K27(21-44): 200 nM, [3H]-SAM: 100 nM) was formulated. The EZH2 diluted solution was taken and added to the 384-well plate at 10 μL/well (10 μL of 1×assay buffer was added in the control group). The plate was sealed and then incubated at room temperature for 15 minutes. 10 μL of the mixed solution of H3K27 (21-44) and [3H]-SAM was added to each well. The plate was sealed and then incubated at room temperature for 60 minutes. 50 μM of SAM (Sigma, Cat. No. A7007) was formulated at low temperature and added to the 384-well plate at 10 μL/well. The sample was taken at 25 μL/well, transferred to a flashplate and incubated at room temperature for at least 1 hour. The flashplate was washed 3 times with a plate washing liquid (dH2O+0.1% Tween-20) and read by using Microbeta. The inhibition rate was calculated in Excel according to: inhibition rate (%)=(maximum valuepositive control−detection signal value)/(maximum valuepositive control−minimum valuenegative control)*100, and IC50 values were fitted by using XL-Fit.

Series [1] in a line: Pharmacokinetic experiment in mice (intravenous 5 mg/kg or intragastric 30 mg/kg). It counts as in vivo. The protocol:
The administration was performed according to table 5.
The concentrations of the compounds in EDTA-K2 anticoagulant plasma were determined by the LC-MS/MS method. The linear range of the standard curve of the compounds is 2-2000 ng/mL. After subjected to precipitating proteins with acetonitrile, the samples were analyzed by LC-MS/MS. The standard curve was subjected to a regression calculation using the weighted least square method (W=1/X^2), and quantified by calculating the ratio of test compound peak area to internal standard peak area.
• (1) except to the blank sample, 400 μL of internal standard working solution (Verapamil internal standard concentration in precipitant acetonitrile is 10.0 ng/mL) was added to a 1.5 mL centrifuge tube containing 30 μL of standard curve samples and quality control samples; • 200 μL of internal standard working solution (Verapamil internal standard concentration in precipitant acetonitrile is 10.0 ng/mL) was added to a 1.5 mL centrifuge tube containing 15 μL of unknown samples; • and 400 μL of acetonitrile was added to the blank sample; • (2) the mixture was mixed evenly for about 1 min in a vortex mixer; • (3) centrifugation was carried out at 10000 rpm at 4C for 10 mi; • (4) 175 μL of the supernatant was transferred to a new 96-well polypropylene plate, and then the plate was sealed and placed in a 10° C. sample tray for injection.

Where [2] appears, read: ICR mice, IV 5 mg/kg, listed as Compound 44, Isomer 2.
[3] abbreviates: ICR mice, PO 30 mg/kg, listed as Compound 44, Isomer 2.
Setting [4] is: ICR mice, PO 30 mg/kg, listed as Compound 53, Isomer 1.
Setting [5] is: ICR mice, IV 5 mg/kg, listed as Compound 53, Isomer 2.
Setting [6] is: ICR mice, PO 30 mg/kg, listed as Compound 53, Isomer 2.

SMILES strings stand for the structures. Read-outs that look alike come from different tables or passages of the source.

Chain of EZH2 (Q15910 other isoform, or with tags, fused parts or gaps isoform Q15910-2): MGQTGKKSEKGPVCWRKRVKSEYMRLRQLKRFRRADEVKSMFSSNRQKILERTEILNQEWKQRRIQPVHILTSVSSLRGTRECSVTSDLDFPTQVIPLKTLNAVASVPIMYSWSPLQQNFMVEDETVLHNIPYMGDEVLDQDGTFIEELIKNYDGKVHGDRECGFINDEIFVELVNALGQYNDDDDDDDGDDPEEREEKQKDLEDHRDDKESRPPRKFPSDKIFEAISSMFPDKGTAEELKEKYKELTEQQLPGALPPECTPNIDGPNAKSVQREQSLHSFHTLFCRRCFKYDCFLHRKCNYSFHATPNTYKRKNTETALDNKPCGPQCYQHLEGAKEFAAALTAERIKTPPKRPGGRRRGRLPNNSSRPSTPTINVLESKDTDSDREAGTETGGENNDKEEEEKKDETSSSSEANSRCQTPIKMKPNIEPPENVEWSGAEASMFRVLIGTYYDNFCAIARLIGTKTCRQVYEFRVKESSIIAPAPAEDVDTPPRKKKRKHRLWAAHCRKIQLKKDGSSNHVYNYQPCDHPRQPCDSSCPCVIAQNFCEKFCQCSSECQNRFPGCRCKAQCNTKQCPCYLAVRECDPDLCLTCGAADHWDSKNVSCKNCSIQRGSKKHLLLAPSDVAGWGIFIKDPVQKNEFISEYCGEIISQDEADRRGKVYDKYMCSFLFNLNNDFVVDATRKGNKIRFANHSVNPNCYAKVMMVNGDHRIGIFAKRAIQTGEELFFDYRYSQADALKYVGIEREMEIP
Chain of EZH2 (O75530 2-441 partner): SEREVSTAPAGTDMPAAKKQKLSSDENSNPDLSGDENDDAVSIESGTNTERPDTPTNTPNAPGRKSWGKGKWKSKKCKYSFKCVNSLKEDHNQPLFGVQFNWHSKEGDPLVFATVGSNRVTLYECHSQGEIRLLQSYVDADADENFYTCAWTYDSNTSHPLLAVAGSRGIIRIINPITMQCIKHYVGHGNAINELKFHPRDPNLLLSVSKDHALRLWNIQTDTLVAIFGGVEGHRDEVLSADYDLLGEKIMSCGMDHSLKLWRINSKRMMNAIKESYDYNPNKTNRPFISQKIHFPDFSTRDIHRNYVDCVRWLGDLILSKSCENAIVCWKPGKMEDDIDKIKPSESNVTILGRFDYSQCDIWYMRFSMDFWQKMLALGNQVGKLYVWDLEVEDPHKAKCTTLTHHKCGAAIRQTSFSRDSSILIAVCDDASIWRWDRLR
Chain of EZH2 (Q15022 2-739 partner): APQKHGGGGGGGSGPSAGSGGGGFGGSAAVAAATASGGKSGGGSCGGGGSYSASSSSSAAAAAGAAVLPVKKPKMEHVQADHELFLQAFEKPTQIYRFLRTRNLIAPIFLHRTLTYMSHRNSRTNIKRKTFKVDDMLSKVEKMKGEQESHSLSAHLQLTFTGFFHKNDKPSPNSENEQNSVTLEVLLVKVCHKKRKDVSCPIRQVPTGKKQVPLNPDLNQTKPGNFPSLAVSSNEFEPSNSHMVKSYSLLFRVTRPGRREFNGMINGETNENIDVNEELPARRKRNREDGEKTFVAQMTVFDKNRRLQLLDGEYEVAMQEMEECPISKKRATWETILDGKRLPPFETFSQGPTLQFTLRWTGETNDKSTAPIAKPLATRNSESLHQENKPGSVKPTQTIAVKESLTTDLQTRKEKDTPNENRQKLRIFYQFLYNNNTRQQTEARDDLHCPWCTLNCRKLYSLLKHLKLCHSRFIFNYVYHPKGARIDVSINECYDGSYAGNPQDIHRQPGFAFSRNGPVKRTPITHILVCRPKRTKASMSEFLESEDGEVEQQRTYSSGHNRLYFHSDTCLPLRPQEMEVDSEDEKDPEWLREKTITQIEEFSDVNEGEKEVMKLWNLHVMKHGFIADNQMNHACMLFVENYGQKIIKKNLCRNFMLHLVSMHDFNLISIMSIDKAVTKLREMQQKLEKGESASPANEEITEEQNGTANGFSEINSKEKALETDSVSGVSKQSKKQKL
Chain of EZH2 (Q09028 2-425 partner): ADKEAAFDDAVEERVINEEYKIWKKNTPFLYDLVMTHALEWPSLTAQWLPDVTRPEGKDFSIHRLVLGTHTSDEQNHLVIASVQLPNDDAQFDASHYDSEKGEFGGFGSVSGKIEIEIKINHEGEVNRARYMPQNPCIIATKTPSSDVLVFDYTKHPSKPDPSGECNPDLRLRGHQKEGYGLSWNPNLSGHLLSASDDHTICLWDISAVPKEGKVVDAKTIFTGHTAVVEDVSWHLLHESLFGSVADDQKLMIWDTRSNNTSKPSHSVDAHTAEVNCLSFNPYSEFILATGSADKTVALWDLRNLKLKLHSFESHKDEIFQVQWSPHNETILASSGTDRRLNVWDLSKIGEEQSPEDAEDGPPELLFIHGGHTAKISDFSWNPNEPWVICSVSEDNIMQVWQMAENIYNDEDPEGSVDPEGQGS
Chain of EZH2 (Q6ZN18 whole entry partner): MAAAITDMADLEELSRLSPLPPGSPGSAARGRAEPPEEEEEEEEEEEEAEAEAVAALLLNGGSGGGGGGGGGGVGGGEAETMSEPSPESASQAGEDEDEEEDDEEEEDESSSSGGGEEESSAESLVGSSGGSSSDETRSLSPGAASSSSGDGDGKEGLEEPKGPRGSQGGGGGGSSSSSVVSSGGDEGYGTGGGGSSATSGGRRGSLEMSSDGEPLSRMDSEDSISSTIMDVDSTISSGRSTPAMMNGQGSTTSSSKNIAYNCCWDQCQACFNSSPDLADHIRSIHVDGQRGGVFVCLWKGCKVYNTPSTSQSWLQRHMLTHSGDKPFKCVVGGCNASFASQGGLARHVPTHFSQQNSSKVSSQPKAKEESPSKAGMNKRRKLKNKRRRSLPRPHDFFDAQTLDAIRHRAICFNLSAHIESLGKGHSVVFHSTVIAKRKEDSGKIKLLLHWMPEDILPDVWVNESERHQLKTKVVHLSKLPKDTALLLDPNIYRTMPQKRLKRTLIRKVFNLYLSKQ

A word on the IC50: it is the concentration at which inhibition is half-maximal. A higher IC50 goes with weaker potency in that assay. `CNC(=O)N1CC2CCC(C1)C2[C@]1(C)Oc2c(Cl)cc(C(=O)NCc3c(SC)cc(C)[nH]c3=O)c(C)c2O1` (mixture of isomers) [Compound 36, 8-(7-chloro-2,4-dimethyl-5-(((6-methyl-4-(methylthio)-2-oxo-1,2-dihydropyridin-3-yl)methyl)carbamoyl)benzo[d][1,3]dioxol-2-yl)-N-methyl-3-azabicyclo[3.2.1]octane-3-carboxamide]: the half-inhibitory concentration (IC50) was 8.96 nM in the series with SU-DHL-6 cells (Homo sapiens, SU-DHL-6, 336 h) and 0.55 nM on EZH2.

Consider `CSc1cc(C)[nH]c(=O)c1CNC(=O)c1cc(Cl)c2c(c1C)OC(C)(C1CCC(N3CC(N(C)C)C3)CC1)O2` (single isomer, unassigned) [Compound 1, isomer 1, 7-chloro-2-(4-(3-(dimethylamino)azetidin-1-yl)cyclohexyl)-2,4-dimethyl-N-((6-methyl-4-(methylthio)-2-oxo-1,2-dihydropyridin-3-yl)methyl)benzo[d][1,3]dioxole-5-carboxamide], for which the IC50 in the series on SU-DHL-6 cells (Homo sapiens, SU-DHL-6, 336 h) was found to be 13.1 nM; at EZH2, 0.67 nM.

For the molecule `CSc1cc(C)[nH]c(=O)c1CNC(=O)c1cc(Cl)c2c(c1C)OC(C)([C@H]1CC[C@@H](NC3CC(F)(F)C3)CC1)O2` (single isomer, unassigned) [Compound 4, isomer 1, 7-chloro-2-(4-((3,3-difluorocyclobutyl)amino)cyclohexyl)-2,4-dimethyl-N-((6-methyl-4-(methylthio)-2-oxo-1,2-dihydropyridin-3-yl)methyl)benzo[d][1,3]dioxole-5-carboxamide], the half-maximal inhibitory concentration (IC50) is 10.2 nM in the series on SU-DHL-6 cells (Homo sapiens, SU-DHL-6, 336 h) and 0.46 nM against EZH2.

For `CSc1cc(C)[nH]c(=O)c1CNC(=O)c1cc(Cl)c2c(c1C)OC(C)([C@H]1CC[C@@H](NC3CC(F)(F)C3)CC1)O2` (single isomer, unassigned) [Compound 4, isomer 2, 7-chloro-2-(4-((3,3-difluorocyclobutyl)amino)cyclohexyl)-2,4-dimethyl-N-((6-methyl-4-(methylthio)-2-oxo-1,2-dihydropyridin-3-yl)methyl)benzo[d][1,3]dioxole-5-carboxamide], the half-inhibitory concentration (IC50) in the series on SU-DHL-6 cells stood at 9.79 nM; against EZH2, 0.56 nM.

Regarding `CSc1cc(C)[nH]c(=O)c1CNC(=O)c1cc(Cl)c2c(c1C)OC(C)([C@H]1CC[C@@H](N[C@H]3C[C@H](F)C3)CC1)O2` (single isomer, unassigned) [Compound 34, isomer 2, 7-chloro-2-(4-((trans-3-fluorocyclobutyl)amino)cyclohexyl)-2,4-dimethyl-N-((6-methyl-4-(methylthio)-2-oxo-1,2-dihydropyridin-3-yl)methyl)benzo[d][1,3]dioxole-5-carboxamide], the IC50 in the series on SU-DHL-6 cells turned out to be 27.1 nM; on EZH2, 0.57 nM.

Turning to `CSc1cc(C)[nH]c(=O)c1CNC(=O)c1cc(Cl)c2c(c1C)OC(C)([C@H]1CC[C@@H](c3ccccn3)CC1)O2` (single isomer, unassigned) [Compound 39, isomer 1, 7-chloro-2,4-dimethyl-N-((6-methyl-4-(methylthio)-2-oxo-1,2-dihydropyridin-3-yl)methyl)-2-(4-(pyridin-2-yl)cyclohexyl)benzo[d][1,3]dioxole-5-carboxamide], the IC50 stood at 28.2 nM in the series on SU-DHL-6 cells and 0.42 nM at EZH2.

As to `CSc1cc(C)[nH]c(=O)c1CNC(=O)c1cc(Cl)c2c(c1C)OC(C)([C@H]1CC[C@@H](c3ccccn3)CC1)O2` (single isomer, unassigned) [Compound 39, isomer 2, 7-chloro-2,4-dimethyl-N-((6-methyl-4-(methylthio)-2-oxo-1,2-dihydropyridin-3-yl)methyl)-2-(4-(pyridin-2-yl)cyclohexyl)benzo[d][1,3]dioxole-5-carboxamide], the figures for the IC50 with SU-DHL-6 cells and on EZH2 were 63.2 nM and 0.58 nM, respectively.

In general, AUC refers to the area under the concentration-time curve, a measure of exposure. One may read the Cmax as the maximum level reached in the sampled fluid or tissue. In general, Tmax refers to the time from dosing to the highest level. In series [1] (setting [2]), `[2H]C([2H])(NC(=O)c1cc(Cl)c2c(c1C)OC(C)([C@H]1CC[C@@H](NC3CC(F)(F)C3)CC1)O2)c1c(SC)cc(C)[nH]c1=O` (single isomer, unassigned) [Compound 44, isomer 2, 7-chloro-2-(4-((3,3-difluorocyclobutyl)amino)cyclohexyl)-2,4-dimethyl-N-((6-methyl-4-(methylthio)-2-oxo-1,2-dihydropyridin-3-yl)methyl-d2)benzo[d][1,3]dioxole-5-carboxamide] returned an area under the curve (AUC) of 713 ng·h/mL, a C0 of 2482 ng/mL and a T1/2 of 2.33 h. Also, in series [1] (ICR mice, PO 30 mg/kg vs IV 5 mg/kg, listed as Compound 44, Isomer 2), the F % stood at 27.4%. In series [1] (setting [3]), this molecule came in with an area under the curve (AUC) of 917 ng·h/mL, a Cmax of 463 ng/mL and a T1/2 of 1.81 h. Moreover, in series [1] (male, ICR, mouse, plasma, po, 30 mg/kg, PO 30 mg/kg, read-out: Tmax), the time of peak concentration (Tmax) was 1 h. The molecule also had an IC50 at EZH2 of 0.51 nM.

A word on the half-life: it is the time needed for the level to fall by half in the phase considered. Higher therefore signals slow loss. By bioavailability is commonly meant the share of a dose that reaches the circulation, judged against a reference dose that is usually intravenous. Consider `[2H]C([2H])(NC(=O)c1cc(Cl)c2c(c1C)OC(C)(C1CCC(N[C@H]3C[C@H](F)C3)CC1)O2)c1c(SC)cc(C)[nH]c1=O` (single isomer, unassigned) [Compound 53, isomer 1, 7-chloro-2-(4-((trans-3-fluorocyclobutyl)amino)cyclohexyl)-2,4-dimethyl-N-((6-methyl-4-(methylthio)-2-oxo-1,2-dihydropyridin-3-yl)methyl-d2)benzo[d][1,3]dioxole-5-carboxamide], for which, in series [1] (setting [4]), the maximum concentration (Cmax) is 1025 ng/mL, the T1/2 was 1.10 h and the time to peak (Tmax) turned out to be 0.500 h. The molecule also showed a half-life in series [1] (male, ICR, mouse, plasma, iv, 5 mg/kg, IV 5 mg/kg) of 1.21 h. In addition, the AUC in series [1] (male, ICR, mouse, plasma, iv, 5 mg/kg, IV 5 mg/kg, read-out: AUC) worked out at 703 ng·h/mL. The C0 in series [1] (male, ICR, mouse, plasma, iv, 5 mg/kg, IV 5 mg/kg, read-out: C0) was 2360 ng/mL. In series [1] (male, ICR, mouse, plasma, po, 30 mg/kg, PO 30 mg/kg vs IV 5 mg/kg), the bioavailability turned out to be 47.9%. Also, the AUC in series [1] (male, ICR, mouse, plasma, po, 30 mg/kg, PO 30 mg/kg, read-out: AUC) was found to be 2020 ng·h/mL. For the same molecule, the concentration for half-maximal inhibition (IC50) against EZH2 was found to be 0.33 nM.

In series [1] (setting [5]), `[2H]C([2H])(NC(=O)c1cc(Cl)c2c(c1C)OC(C)(C1CCC(N[C@H]3C[C@H](F)C3)CC1)O2)c1c(SC)cc(C)[nH]c1=O` (single isomer, unassigned) [Compound 53, isomer 2, 7-chloro-2-(4-((trans-3-fluorocyclobutyl)amino)cyclohexyl)-2,4-dimethyl-N-((6-methyl-4-(methylthio)-2-oxo-1,2-dihydropyridin-3-yl)methyl-d2)benzo[d][1,3]dioxole-5-carboxamide] showed an exposure (AUC) of 954 ng·h/mL, a C0 of 2665 ng/mL and a T1/2 of 1.87 h. Further, in series [1] (ICR mice, PO 30 mg/kg vs IV 5 mg/kg, listed as Compound 53, Isomer 2), the F % was found to be 38.4%. Also, in series [1] (setting [6]), the area under the curve (AUC) was determined as 2201 ng·h/mL, the Cmax came out at 476 ng/mL, the T1/2 was found to be 4.51 h and the time of peak concentration (Tmax) worked out at 4.00 h.

`CSc1cc(C)[nH]c(=O)c1CNC(=O)c1cc(Cl)c2c(c1C)OC(C)(C1CCC(N(C)C3CC(F)(F)C3)CC1)O2` (centres unmarked) [Compound 35, 7-chloro-2-(4-((3,3-difluorocyclobutyl)(methyl)amino)cyclohexyl)-2,4-dimethyl-N-((6-methyl-4-(methylthio)-2-oxo-1,2-dihydropyridin-3-yl)methyl)benzo[d][1,3]dioxole-5-carboxamide] returned an IC50 against EZH2 of 0.59 nM.

For the origin of these results see US20230365541A1, “INHIBITOR OF ENHANCER OF ZESTE HOMOLOGUE 2, AND USE THEREOF” (HAISCO PHARMACEUTICALS PTE. LTD., priority 2020, published 2023).
